Results published in patent US20220340629A1, “Myosin Derived Peptides and Related Compounds with Anticoagulant Activities” (THE SCRIPPS RESEARCH INSTITUTE, priority 0001, published 2022).
Read-outs that look alike come from different tables or passages of the source. Non-standard residues stand in square brackets, D forms with d. Residues, ends and D or L forms follow the SMILES beside them. NMeH = CN[C@@H](Cc1c[nH]cn1)C(=O)O; NMeI = CC[C@H](C)[C@H](NC)C(=O)O; NMeA = CN[C@@H](C)C(=O)O; Nle = CCCC[C@H](N)C(=O)O

Experiments:
[1] = tested on: skeletal muscle myosin-supported prothrombin activation by factors Xa and Va; experiment: Assay 1A: prothrombin activation by factor Xa/factor Va/myosin in purified system; format: biochemical, human factors Xa and Va; rabbit skeletal muscle myosin; conditions: for inhibition of myosin's procoagulant activity: data not shown; for inhibition of myosin-supported prothrombin activation at 100 μM: peptide 100 μM, FIG. 1A
[2] = target: skeletal muscle myosin-supported prothrombin activation by factors Xa and Va (Homo sapiens, UniProt P00742); experiment: as above; format: biochemical, human factors Xa and Va; rabbit skeletal muscle myosin; conditions: purified system
Sequence of skeletal muscle myosin-supported prothrombin activation by factors Xa and Va (Homo sapiens, UniProt P00742) (P00742 41-179): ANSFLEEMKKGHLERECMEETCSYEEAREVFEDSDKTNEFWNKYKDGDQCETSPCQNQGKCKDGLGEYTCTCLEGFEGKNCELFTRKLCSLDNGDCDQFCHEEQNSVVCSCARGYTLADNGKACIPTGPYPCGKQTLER
Sequence of skeletal muscle myosin-supported prothrombin activation by factors Xa and Va (Homo sapiens, UniProt P00742) (P00742 235-488): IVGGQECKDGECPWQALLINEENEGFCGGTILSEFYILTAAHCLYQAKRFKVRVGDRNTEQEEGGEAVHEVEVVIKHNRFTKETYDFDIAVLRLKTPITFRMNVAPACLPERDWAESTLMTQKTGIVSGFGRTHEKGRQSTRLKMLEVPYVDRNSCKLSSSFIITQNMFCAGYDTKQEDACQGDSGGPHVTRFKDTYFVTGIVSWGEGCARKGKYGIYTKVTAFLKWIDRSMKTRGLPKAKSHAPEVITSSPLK
Sequence of skeletal muscle myosin-supported prothrombin activation by factors Xa and Va (Homo sapiens, UniProt P00742) (P12259 29-737 partner): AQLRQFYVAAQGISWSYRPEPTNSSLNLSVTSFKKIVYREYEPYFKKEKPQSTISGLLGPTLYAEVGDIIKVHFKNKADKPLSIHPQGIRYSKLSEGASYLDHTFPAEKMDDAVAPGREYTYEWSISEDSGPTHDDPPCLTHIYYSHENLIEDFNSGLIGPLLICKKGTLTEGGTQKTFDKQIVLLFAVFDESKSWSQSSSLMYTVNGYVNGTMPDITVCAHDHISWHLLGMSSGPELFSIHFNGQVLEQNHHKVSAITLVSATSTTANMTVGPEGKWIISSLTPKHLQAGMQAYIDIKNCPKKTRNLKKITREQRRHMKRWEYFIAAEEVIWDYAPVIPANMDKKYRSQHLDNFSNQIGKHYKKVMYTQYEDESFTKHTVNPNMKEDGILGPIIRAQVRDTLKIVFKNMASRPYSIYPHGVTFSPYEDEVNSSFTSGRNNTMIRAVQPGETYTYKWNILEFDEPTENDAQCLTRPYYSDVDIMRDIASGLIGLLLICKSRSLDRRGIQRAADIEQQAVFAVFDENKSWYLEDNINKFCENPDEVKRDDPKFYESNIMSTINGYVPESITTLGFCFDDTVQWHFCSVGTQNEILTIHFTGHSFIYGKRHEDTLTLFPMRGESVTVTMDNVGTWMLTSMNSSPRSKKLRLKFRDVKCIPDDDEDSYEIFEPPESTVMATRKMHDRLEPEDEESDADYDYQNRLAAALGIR
Sequence of skeletal muscle myosin-supported prothrombin activation by factors Xa and Va (Homo sapiens, UniProt P00742) (P12259 1574-2224 partner): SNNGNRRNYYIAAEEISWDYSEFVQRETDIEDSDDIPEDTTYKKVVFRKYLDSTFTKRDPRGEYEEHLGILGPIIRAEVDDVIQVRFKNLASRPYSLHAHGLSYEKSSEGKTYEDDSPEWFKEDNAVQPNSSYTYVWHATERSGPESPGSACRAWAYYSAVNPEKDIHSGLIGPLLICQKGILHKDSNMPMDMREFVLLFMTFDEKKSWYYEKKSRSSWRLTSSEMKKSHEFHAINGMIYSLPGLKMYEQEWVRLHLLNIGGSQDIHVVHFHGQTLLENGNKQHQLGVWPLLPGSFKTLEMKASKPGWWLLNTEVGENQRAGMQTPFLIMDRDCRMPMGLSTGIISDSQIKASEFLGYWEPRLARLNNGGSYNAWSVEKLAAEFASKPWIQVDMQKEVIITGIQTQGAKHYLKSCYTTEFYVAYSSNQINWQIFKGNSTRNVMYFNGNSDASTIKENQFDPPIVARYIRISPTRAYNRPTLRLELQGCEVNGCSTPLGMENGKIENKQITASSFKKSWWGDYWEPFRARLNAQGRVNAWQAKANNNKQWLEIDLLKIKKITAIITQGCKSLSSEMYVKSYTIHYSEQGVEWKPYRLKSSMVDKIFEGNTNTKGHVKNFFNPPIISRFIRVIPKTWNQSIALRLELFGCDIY

[3] = skeletal muscle myosin, factor Va 5 nM, factor Xa 0.2 nM, prothrombin 0.75 μM, 10 min, read-out: 1A (+myosin)
[4] = prothrombin activation with myosin, read-out: 1A (+ myosin) IC50

Compound: Cc1ccc2c(c1)C(=O)C1(O)CCN(c3ccccc3)C1=N2 (single isomer, unassigned; (-)) [(-) blebbistatin, reference compound]
- inhibition of myosin's procoagulant activity ([1]; up to 65 μM): did not inhibit

Compound: CC[C@H](C)[C@H](NC(=O)[C@H](C)N)C(=O)N[C@@H](Cc1ccccc1)C(=O)N[C@@H](CS)C(=O)N[C@H](C(=O)N[C@@H](CCC(N)=O)C(=O)N[C@@H](Cc1ccc(O)cc1)C(=O)N[C@@H](CC(N)=O)C(=O)N[C@H](C(=O)N[C@@H](CCCNC(=N)N)C(=O)N[C@@H](CO)C(=O)N[C@@H](Cc1ccccc1)C(=O)N[C@@H](CCSC)C(=O)N[C@@H](CC(N)=O)C(=O)N[C@H](C(=O)N[C@@H](CCCCN)C(=O)N[C@@H](Cc1c[nH]cn1)C(=O)N[C@@H](Cc1c[nH]c2ccccc12)C(=O)N[C@@H](C)C(=O)N[C@@H](Cc1c[nH]c2ccccc12)C(=O)N[C@@H](CCSC)C(=O)N[C@@H](CCCCN)C(N)=O)C(C)C)[C@@H](C)CC)[C@@H](C)CC [HC134] (H-AIFCIQYNIRSFMNVKHWAWMK-NH2; N-terminus assumed)
- IC50 [2, 3]: 0.9 µM

Compound: CC[C@H](C)[C@H](NC(=O)[C@H](C)N)C(=O)N[C@@H](Cc1ccccc1)C(=O)N[C@@H](CS)C(=O)N[C@H](C(=O)N[C@@H](CCC(N)=O)C(=O)N[C@@H](Cc1ccc(O)cc1)C(=O)N[C@@H](CC(N)=O)C(=O)N[C@H](C(=O)N[C@@H](CCCNC(=N)N)C(=O)N[C@@H](CO)C(=O)N[C@@H](Cc1ccccc1)C(=O)N[C@@H](CCSC)C(=O)N[C@@H](CC(N)=O)C(=O)N[C@H](C(=O)N[C@@H](CCCCN)C(=O)N[C@@H](Cc1c[nH]cn1)C(=O)N[C@@H](Cc1c[nH]c2ccccc12)C(=O)N1CCC[C@H]1C(=O)N[C@@H](C)C(=O)N[C@@H](CCSC)C(=O)N[C@@H](CCCCN)C(N)=O)C(C)C)[C@@H](C)CC)[C@@H](C)CC [HC135] (H-AIFCIQYNIRSFMNVKHWPAMK-NH2; N-terminus assumed)
- IC50 [2, 3]: 2.7 µM

Compound: CC[C@H](C)[C@H](NC(=O)[C@H](C)N)C(=O)N[C@@H](Cc1ccccc1)C(=O)N[C@@H](CS)C(=O)N[C@H](C(=O)N[C@@H](CCC(N)=O)C(=O)N[C@@H](Cc1ccc(O)cc1)C(=O)N[C@@H](CC(N)=O)C(=O)N[C@H](C(=O)N[C@@H](CCCNC(=N)N)C(=O)N[C@@H](CO)C(=O)N[C@@H](Cc1ccccc1)C(=O)N[C@@H](CCSC)C(=O)N[C@@H](CC(N)=O)C(=O)N[C@H](C(=O)N[C@@H](CCCCN)C(=O)N[C@@H](Cc1c[nH]cn1)C(=O)N[C@@H](Cc1c[nH]c2ccccc12)C(=O)N1CCC[C@H]1C(=O)N[C@@H](Cc1c[nH]c2ccccc12)C(=O)N[C@@H](C)C(=O)N[C@@H](CCCCN)C(N)=O)C(C)C)[C@@H](C)CC)[C@@H](C)CC [HC136] (H-AIFCIQYNIRSFMNVKHWPWAK-NH2; N-terminus assumed)
- IC50 [2, 3]: 1.6 µM

Compound: CC[C@H](C)[C@H](NC(=O)[C@H](C)N)C(=O)N[C@@H](Cc1ccccc1)C(=O)N[C@@H](CS)C(=O)N[C@H](C(=O)N[C@@H](CCC(N)=O)C(=O)N[C@@H](Cc1ccc(O)cc1)C(=O)N[C@@H](CC(N)=O)C(=O)N[C@H](C(=O)N[C@@H](CCCNC(=N)N)C(=O)N[C@@H](CO)C(=O)N[C@@H](Cc1ccccc1)C(=O)N[C@@H](CCSC)C(=O)N[C@@H](CC(N)=O)C(=O)N[C@H](C(=O)N[C@@H](CCCCN)C(=O)N[C@@H](Cc1c[nH]cn1)C(=O)N[C@@H](Cc1c[nH]c2ccccc12)C(=O)N1CCC[C@H]1C(=O)N[C@@H](Cc1c[nH]c2ccccc12)C(=O)N[C@@H](CCSC)C(=O)N[C@@H](C)C(N)=O)C(C)C)[C@@H](C)CC)[C@@H](C)CC [HC137] (H-AIFCIQYNIRSFMNVKHWPWMA-NH2; N-terminus assumed)
- IC50 [2, 3]: 5.5 µM

Compound: CCCC[C@H](NC(=O)[C@H](Cc1c[nH]c2ccccc12)NC(=O)[C@@H]1CCCN1C(=O)[C@H](Cc1c[nH]c2ccccc12)NC(=O)[C@H](Cc1c[nH]cn1)NC(=O)[C@H](CCCCN)NC(=O)[C@@H](NC(=O)[C@H](CC(N)=O)NC(=O)[C@H](CCCC)NC(=O)[C@H](Cc1ccccc1)NC(=O)[C@H](CO)NC(=O)[C@H](CCCNC(=N)N)NC(=O)[C@@H](NC(=O)[C@H](CC(N)=O)NC(=O)[C@H](Cc1ccc(O)cc1)NC(=O)[C@H](CCC(N)=O)NC(=O)[C@@H](NC(=O)[C@H](CS)NC(=O)[C@H](Cc1ccccc1)NC(=O)[C@@H](NC(=O)[C@H](C)NC)[C@@H](C)CC)[C@@H](C)CC)[C@@H](C)CC)C(C)C)C(=O)N[C@@H](CCCCN)C(N)=O [HC190] (H-[NMeA]IFCIQYNIRSF[Nle]NVKHWPW[Nle]K-NH2; N-terminus assumed)
- IC50 [2, 3]: 3.6 µM

Compound: CCCC[C@H](NC(=O)[C@H](Cc1c[nH]c2ccccc12)NC(=O)[C@@H]1CCCN1C(=O)[C@H](Cc1c[nH]c2ccccc12)NC(=O)[C@H](Cc1c[nH]cn1)NC(=O)[C@H](CCCCN)NC(=O)[C@@H](NC(=O)[C@H](CC(N)=O)NC(=O)[C@H](CCCC)NC(=O)[C@H](Cc1ccccc1)NC(=O)[C@H](CO)NC(=O)[C@H](CCCNC(=N)N)NC(=O)[C@@H](NC(=O)[C@H](CC(N)=O)NC(=O)[C@H](Cc1ccc(O)cc1)NC(=O)[C@H](CCC(N)=O)NC(=O)[C@@H](NC(=O)[C@H](CS)NC(=O)[C@H](Cc1ccccc1)NC(=O)[C@H](C)N(C)C(=O)[C@H](C)N)[C@@H](C)CC)[C@@H](C)CC)C(C)C)C(=O)N[C@@H](CCCCN)C(N)=O [HC191] (H-A[NMeA]FCIQYNIRSF[Nle]NVKHWPW[Nle]K-NH2; N-terminus assumed)
- IC50 [2, 4]: 1.6 µM

Compound: CCCC[C@H](NC(=O)[C@H](Cc1c[nH]c2ccccc12)NC(=O)[C@@H]1CCCN1C(=O)[C@H](Cc1c[nH]c2ccccc12)NC(=O)[C@H](Cc1c[nH]cn1)NC(=O)[C@H](CCCCN)NC(=O)[C@@H](NC(=O)[C@H](CC(N)=O)NC(=O)[C@H](CCCC)NC(=O)[C@H](Cc1ccccc1)NC(=O)[C@H](CO)NC(=O)[C@H](CCCNC(=N)N)NC(=O)[C@@H](NC(=O)[C@H](CC(N)=O)NC(=O)[C@H](Cc1ccc(O)cc1)NC(=O)[C@H](CCC(N)=O)NC(=O)[C@@H](NC(=O)[C@H](CS)NC(=O)[C@H](Cc1ccccc1)NC(=O)[C@H]([C@@H](C)CC)N(C)C(=O)[C@H](C)N)[C@@H](C)CC)[C@@H](C)CC)C(C)C)C(=O)N[C@@H](CCCCN)C(N)=O [HC192] (H-A[NMeI]FCIQYNIRSF[Nle]NVKHWPW[Nle]K-NH2; N-terminus assumed)
- IC50 [2, 4]: 2.2 µM

Compound: CCCC[C@H](NC(=O)[C@H](Cc1c[nH]c2ccccc12)NC(=O)[C@@H]1CCCN1C(=O)[C@H](Cc1c[nH]c2ccccc12)NC(=O)[C@H](Cc1c[nH]cn1)N(C)C(=O)[C@H](CCCCN)NC(=O)[C@@H](NC(=O)[C@H](CC(N)=O)NC(=O)[C@H](CCCC)NC(=O)[C@H](Cc1ccccc1)NC(=O)[C@H](CO)NC(=O)[C@H](CCCNC(=N)N)NC(=O)[C@@H](NC(=O)[C@H](CC(N)=O)NC(=O)[C@H](Cc1ccc(O)cc1)NC(=O)[C@H](CCC(N)=O)NC(=O)[C@@H](NC(=O)[C@H](CS)NC(=O)[C@H](Cc1ccccc1)NC(=O)[C@@H](NC(=O)[C@H](C)N)[C@@H](C)CC)[C@@H](C)CC)[C@@H](C)CC)C(C)C)C(=O)N[C@@H](CCCCN)C(N)=O [HC200] (H-AIFCIQYNIRSF[Nle]NVK[NMeH]WPW[Nle]K-NH2; N-terminus assumed)
- IC50 [2, 4]: 1.4 µM

Compound: Cc1ccc(S(=O)(=O)NCc2ccccc2)cc1 [N-benzyl-p-toluene sulfonamide, reference compound]
- inhibition of myosin's procoagulant activity ([1]; up to 0.7 mM): did not inhibit

Compound: CN1CCN(CCCN2c3ccccc3Sc3ccc(C(F)(F)F)cc32)CC1 [TFP, trifluoperazine, reference compound]
- inhibition of myosin-supported prothrombin activation ([1]; dose-dependent studies, FIG. 4, TFP 0-100 μM, ELC peptides 0-300 μM): inhibits

Compound: COC(=O)N1CCN(Cc2cccc(NC(=O)Nc3ccc(C)nc3)c2F)CC1 [omecamtiv mecarbil, reference compound]
- inhibition of myosin's procoagulant activity ([1]; up to 50 μM): did not inhibit

Compound: Ac-GAELRHVLATLGEKMKEEEVEALMA-NH (Ac-GAELRHVLATLGEKMKEEEVEALMA-NH2) [ELC149-173]
- inhibition of myosin-supported prothrombin activation at 100 μM [1]: did not

Compound: Ac-SNEELNAKKIEFEQFLPMMQAISN-NH2 [ELC99-122]
- inhibition of myosin-supported prothrombin activation at 100 μM [1]: did not

Compound: QEEIKNMWAAFPPDVGGNVDYKNICYVITH (Ac-QEEIKNMWAAFPPDVGGNVDYKNICYVITH-NH2) [RLC133-162]
- IC50 [2, 4]: 25 µM

Compound: RVFDKEGNGTVMGAELRHVL (Ac-RVFDKEGNGTVMGAELRHVL-NH2) [ELC138-157]
- IC50 [2, 4]: 75 µM

Compound: YEDFVEGLRVFDKEGN (Ac-YEDFVEGLRVFDKEGN-NH2) [ELC129-144]
- IC50 [2, 4]: ~70 µM
